“Also recorded” adds a separate entry of the source. Read-outs that look alike come from different tables or passages of the source.
How the values were obtained:
function of the retina = tested on: function of the retina; design: species or system C57 BL/6 mice; conditions: mouse, in vivo
Procedure: 5) After C57 BL/6 mice (Orient Bio, Korea) were acclimatized to be adapted to the environment for 1 week, 7-week old mice were treated with the image-guided laser (Phoenix, USA) especially optic nerve area at 3, 6, 9, and 12 o'clock positions. The laser was irradiated at 532 nm, 100 ms/70 ms, 200 mW, and a spot size was 50 μm.
The mice were dark adapted for 24 hours before test and all tests were performed in a darkroom. The eyes of mice were dilated and general anesthetized by intraperitoneal injection with a mixture of ketamine (30 mg/kg) and xylazine hydrochloride (2.5 mg/kg) in order to detect the function of the retina. Electrodes were placed in skin, tail and cornea to run electroretinography. […] The amplitude from the trough of A-wave to the peak of B-wave was measured and evaluated as an index of the function of the retina. […]
FIG. 9A-FIG. 9F are the test results that measured the response degree of retina to the white light after dark adaptation of group with intravitreal injection at day 15 after laser injury.
The dose of each individual was calculated based on the body weight measured immediately prior to administration and then orally administered using a disposable syringe equipped with sonde. […]
FIG. 14A-FIG. 14E are the test results that measured the response degree of retina to the white light after dark adaptation of group with oral administration at day 14 after laser injury.

[1] = tested on: vascular endothelial growth factor (VEGF); assay: Western blot analysis of VEGF expression in the choroid and the retina; assay type: in vivo, C57 BL/6 mice; conditions: intravitreal administration, day 15 after laser injury
[2] = tested on: laser-induced choroidal neovascularization (CNV); assay: Optical coherence tomography (OCT) in laser-induced CNV mouse model; assay type: in vivo, C57 BL/6 mice; conditions: intravitreal injection, day 14 after laser injury, vs PBS
[3] = tested on: laser-induced choroidal neovascularization (CNV); assay: Fundus fluorescein angiography (FFA) in laser-induced CNV mouse model; assay type: in vivo, C57 BL/6 mice; conditions: intravitreal injection 2 μl per eyeball, 14 days after laser injury, vs PBS
[4] = cited from earlier work
[5] = crystalline form, cited from earlier work
[6] = cited from earlier work; remark: listed apart in the source
[7] = DMSO/PBS (pH 7.2) solution; cited from earlier work
[8] = tested on: wet (age-related) macular degeneration; conditions: in vivo; cited from earlier work

Eylea®: conventional VEGF antibody drug, positive control, intravitreal injection
ERG response (function of the retina): increased
expression of VEGF in the choroid and the retina [1]: decreased; also recorded: less compared to that of YSB201
size of CNV lesions (OCT) [2]: statistically significantly inhibited
choroidal neovascularization (FFA, corrected total fluorescence) [3]: statistically significantly inhibited

C[C@H](CCC(=O)O)[C@H]1CC[C@H]2[C@@H]3[C@@H](O)C[C@@H]4C[C@H](O)CC[C@]4(C)[C@H]3CC[C@]12C [UDCA, ursodeoxycholic acid]
solubility in water [4]: 20 µg/mL
solubility in water ([4]; protonated form): 53 µM
acid dissociation constant, pKa [5]: about 5.0
acid dissociation constant, pKa ([5]; listed as ursodeoxycholic acid): 5.1
absorbed at the ileum of the colon by the active transport mechanism ([6]; oral tablet or capsule, crystalline form): up to 20 % of intakes
absorbed along the jejunum and ileum by nonionic passive diffusion ([6]; oral tablet or capsule): 30-60%
absorbed to the liver through the small intestine ([6]; taken orally): ≥ 95%

C[C@H](CCC(=O)NCCS(=O)(=O)O)[C@H]1CC[C@H]2[C@@H]3[C@@H](O)C[C@@H]4C[C@H](O)CC[C@]4(C)[C@H]3CC[C@]12C [tUDCA, tauroursodeoxycholic acid]
solubility in water [4]: 200 µg/mL
solubility ([4]; first dissolved in DMSO, then mixed with PBS (pH 7.2) 1:4): up to 200 mg/l
time the stability of the solution can be maintained [7]: about 1 day
pH (strong acidity) [5]: ≤ 1

B1: Lucentis®: antibody drug inhibiting the activity of VEGF, intravitreal injection once every four weeks (antibody, chains of the INN, looked up, V domains shown)
VH: EVQLVESGGGLVQPGGSLRLSCAASGYDFTHYGMNWVRQAPGKGLEWVGWINTYTGEPTYAADFKRRFTFSLDTSKSTAYLQMNSLRAEDTAVYYCAKYPYYYGTSHWYFDVWGQGTLVTVSS
VL: DIQLTQSPSSLSASVGDRVTITCSASQDISNYLNWYQQKPGKAPKVLIYFTSSLHSGVPSRFSGSGSGTDFTLTISSLQPEDFATYYCQQYSTVPWTFGQGTKVEIK
modifications: Fab
vision improvement rate [8]: 40%
vision maintenance effect [8]: 90%

Source: patent US20210252022A1, “COMPOSITION FOR THE PREVENTION OR THE TREATMENT OF VISUAL IMPAIRMENTS COMPRISING URSODEOXYCHOLIC ACID” (AMICOGEN PHARMA INC., priority 2017, published 2021)
